Patent publication US20240294543A1, “CYCLOHEPTA-THIENO-DIAZEPINE DERIVATIVES AS GABA A GAMMA1 PAM” (Hoffmann-La Roche Inc., priority 2021, published 2024)

What was measured:
[1] = target: human GABAA α5β2γ1 receptor (Homo sapiens (Human), UniProt P31644+Q8N1C3); assay: Radioligand binding assay, competition for [3H]RO7239181, γ1-containing GABAA subtypes
Protocol: The affinity of compounds at GABAA γ1 subunit-containing receptors was measured by competition for [^3H]RO7239181 (67.3 Ci/mmol; Roche) binding to membranes from HEK293F cells (ThermoFisher R79007) expressing human (transiently transfected) receptors of composition α5β2γ1, α2β2γ1, α1β2γ1. For better protein expression of the α2 subunit-containing receptors, the 28 amino acid long signal peptide (Met1 to Ala28) of the human GABAA α2 subunit was substituted by the 31 amino acid long signal peptide (Met1 to Ser31) of human GABAA α5 subunit.
Harvested pellets from HEK293F cells expressing the different GABAA receptor subtypes were resuspended in Mannitol Buffer pH 7.2-7.4 (Mannitol 0.29 M, Triethylamine 10 mM, Acetic acid 10 mM, EDTA 1 mM plus protease inhibitors (20 tablets Complete, Roche Diagnostics Cat. No. 05 056 489 001 per liter)), washed two times and then resuspended at 1:10 to 1:15 dilution in the same buffer. Cell disruption was performed by stirring the suspension in a Parr vessel #4637 at 435 psi for 15 minutes, and then the suspensions were centrifuged at 1000×g for 15 minutes at 4° C. (Beckman Avanti J-HC; rotor JS-4.2). The supernatant (S1) was transferred in a 21 Schott flask and the pellet (P1) was resuspended with Mannitol Buffer up to 175 ml. The resuspended pellet was transferred into a 250 ml Corning centrifugal beaker and centrifuged at 1500×g for 10 minutes at 4° C. (Beckman Avanti J-HC; rotor JS-4.2). The supernatant (S1) was then transferred in the 21 Schott flask and the pellet was discarded. The supernatants (S1) were centrifuged in 500 ml Beckman polypropylene centrifugal beaker at 15'000×g for 30 minutes at 4° C. (Beckman Avanti J-20 XP; rotor JLA-10.500). The pellet (P2) was resuspended with Mannitol Buffer 1:1 and frozen at −80° C. The supernatant (S2) was centrifuged in 100 ml Beckman polypropylene centrifugal tubes at 48000×g for 50 minutes at 4° C. (Beckman Avanti J-20 XP; rotor JA-18). The supernatant (S3) was discarded and the pellet (P3) was resuspended with 1:1 Mannitol Buffer. The P2 and P3 protein concentration was determined with the BIORAD Standard assay method with bovine serum albumin as standard and measured on the NANO-Drop 1000. The membrane suspension was aliquots (500 μl per tube) and stored at −80° C. until required.
Membrane homogenates were resuspended and polytronised (Polytron PT1200E Kinematica AG) in Potassium Phosphate 10 mM, KCl 100 mM binding buffer at pH 7.4 to a final assay concentration determined with a previous experiment.
Radioligand binding assays were carried out in a volume of 200 μL (96-well plates) which contained 100 μL of cell membranes, [^3H]RO7239181 at a concentration of 1.5 nM (α5β2γ1) or 20-30 nM (α1β2γ1, α2β2γ1) and the test compound in the range of [0.3-10000]×10^−9 M. Nonspecific binding was defined by 10×10^−6 (α5β2γ1) and 30×10^−6 M RO7239181 and typically represented less than 5% (α5β2γ1) and less than 20% (α1β2γ1, α2β2γ1) of the total binding. Assays were incubated to equilibrium for 1 hour at 4° C. and then, membranes were filtered onto unifilter (96-well white microplate with bonded GF/C filters preincubated 20-50 minutes in 0.3% Polyethylenimine) with a Filtermate 196 harvester (Packard BioScience) and washed 4 times with cold Potassium Phosphate 10 mM pH 7.4, KCl 100 mM binding buffer. After anhydrousing, filter-retained radioactivity was detected by liquid scintillation counting. Ki values were calculated using Excel-Fit (Microsoft) and are the means of two determinations.

[2] = target: h-GABA-A α2β2γ1 (Homo sapiens (Human), UniProt P47869+Q8N1C3); assay: Two-electrode voltage clamp electrophysiology in Xenopus oocytes expressing GABAA receptors; format: cell-based; conditions: for Efficacy (GABA) %: % modulation of GABA EC20 = 100*(Fold increase−1), compound at about 30-fold its Ki α2β2γ1; for Fold increase h-GABA-A α2β2γ1 oocyte @ 30-fold Ki: Xenopus oocytes, GABA EC20, compound at about 30-fold its Ki α2β2γ1
Protocol: Xenopus Oocytes Preparation Xenopus laevis oocytes at maturation stages V-VI were used for the expression of cloned mRNA encoding GABAA receptor subunits. Oocytes ready for RNA micro-injection were bought from Ecocyte, Castrop-Rauxel, Germany and stored in modified Barth's medium (composition in mM: NaCl 88, KCl 1, NaHCO3 2.4, HEPES 10, MgSO4 0.82, CaNO3 0.33, CaCl2 0.33, pH=7.5) at 20° C. until the experiment.
Oocytes were plated in 96-well plates for microinjection using the Roboinject automated instrument (MultiChannelSystems, Reutlingen, Germany). Approximately 50 nL of an aqueous solution containing the RNA transcripts for the subunits of the desired GABAA receptor subtype was injected into each oocyte. […] Oocytes were kept in modified Barth's medium (composition in mM: NaCl 88, KCl 1, NaHCO3 […], HEPES 10, MgSO4 0.82, CaNO3 0.33, CaCl2 0.33, pH=7.5) at 20° C. until the experiment.
Electrophysiological experiments were performed using the Roboocyte instrument (MultiChannelSystems, Reutlingen, Germany) on days 3 to 5 after the micro-injection of mRNA. During the experiment the oocytes were constantly superfused by a solution containing (in mM) NaCl 90, KCl 1, HEPES 5, MgCl2 1, CaCl2 1 (pH 7.4). Oocytes were impaled by two glass microelectrodes (resistance: 0.5-0.8 MQ) which were filled with a solution containing KCl 1M+K-acetate 1.5 M and voltage-clamped to −80 mV. The recordings were performed at room temperature using the Roboocyte two-electrode voltage clamp system (Multichannelsystem). After an initial equilibration period of 1.5 min GABA was added for 1.5 min at a concentration evoking approximately 20% of a maximal current response (EC20). After another rest interval of 2.5 min GABA was again added evoking a response of similar amplitude and shape. […] Current traces were recorded at a digitization rate of 10 Hz during and shortly before and after the GABA application.
Each compound and concentration was tested on at least 3 oocytes. Different oocytes were used for different compound concentrations.
For the analysis, the digitized current traces of the first and second GABA response were superimposed and, if necessary, rescaled to equal maximal amplitudes. The ratio between the two responses during the time interval of test compound application was calculated point by point. The extremum of the resulting “ratio trace” was taken as the efficacy (“Fold increase”) of the compound expressed as “% modulation of GABA EC20” (100*(Fold increase−1)).

With `C[C@@H]1N=C(c2c(F)cccc2F)c2c(sc3c2COCCC3)-n2cc(C(=O)NCC3(O)CC3)nc21` [Example 68, (7S)-9-(2,6-difluorophenyl)-N-[(1-hydroxycyclopropyl)methyl]-7-methyl-13-oxa-18-thia-2,5,8-triazatetracyclo[8.8.0.02,6.011,17]octadeca-1(10),3,5,8,11(17)-pentaene-4-carboxamide] the Ki [1] was 2.95 nM, the “Efficacy (GABA) %” value [2] was 159% and the “Fold increase h-GABA-A α2β2γ1 oocyte @ 30-fold Ki” value [2] was 2.59.

`Cc1nnc2n1-c1sc3c(c1C(c1c(F)cccc1F)=N[C@H]2C)COCCC3` [Example 52, (7S)-9-(2,6-difluorophenyl)-3,7-dimethyl-13-oxa-18-thia-2,4,5,8-tetrazatetracyclo[8.8.0.02,6.011,17]octadeca-1(10),3,5,8,11(17)-pentaene] was tested, and the Ki [1] was 7.6 nM, the “Efficacy (GABA) %” value [2] was 170% and the “Fold increase h-GABA-A α2β2γ1 oocyte @ 30-fold Ki” value [2] was 2.70.

With `C[C@@H]1N=C(c2c(F)cccc2F)c2c(sc3c2COC[C@H](C)O3)-n2nc(C(=O)N3CC(F)C3)nc21` [Example 40, [(7S,15S)-9-(2,6-difluorophenyl)-7,15-dimethyl-13,16-dioxa-18-thia-2,3,5,8-tetrazatetracyclo[8.8.0.02,6.011,17]octadeca-1(10),3,5,8,11(17)-pentaen-4-yl]-(3-fluoroazetidin-1-yl)methanone] the Ki [1] was 2.65 nM, the “Efficacy (GABA) %” value [2] was 141% and the “Fold increase h-GABA-A α2β2γ1 oocyte @ 30-fold Ki” value [2] was 2.41.

With `C[C@@H]1N=C(c2c(F)cccc2F)c2c(sc3c2COCCO3)-n2nc(C(=O)N3CCC3)nc21` [Example 22, azetidin-1-yl-[(7S)-9-(2,6-difluorophenyl)-7-methyl-13,16-dioxa-18-thia-2,3,5,8-tetrazatetracyclo[8.8.0.02,6.011,17]octadeca-1(10),3,5,8,11(17)-pentaen-4-yl]methanone] the Ki [1] was 1.12 nM, the “Efficacy (GABA) %” value [2] was 88% and the “Fold increase h-GABA-A α2β2γ1 oocyte @ 30-fold Ki” value [2] was 1.88.

For `C[C@@H]1N=C(c2c(F)cccc2F)c2c(sc3c2COCCO3)-n2nc(C(=O)N3CC(OC(C)(C)C)C3)nc21` [Example 29, (3-tert-butoxyazetidin-1-yl)-[(7S)-9-(2,6-difluorophenyl)-7-methyl-13,16-dioxa-18-thia-2,3,5,8-tetrazatetracyclo[8.8.0.02,6.011,17]octadeca-1(10),3,5,8,11(17)-pentaen-4-yl]methanone], the Ki [1] was 1.82 nM, the “Efficacy (GABA) %” value [2] was 79% and the “Fold increase h-GABA-A α2β2γ1 oocyte @ 30-fold Ki” value [2] was 1.79.

`Cc1nnc2n1-c1sc3c(c1C(c1c(F)cccc1F)=N[C@H]2C)CCCC[C@H]3F` (single isomer, unassigned) [Example 11] was tested, and the Ki [1] was 2.7 nM, the “Efficacy (GABA) %” value [2] was 88% and the “Fold increase h-GABA-A α2β2γ1 oocyte @ 30-fold Ki” value [2] was 1.88.

With `C[C@@H]1N=C(c2c(F)cccc2F)c2c(sc3c2COCCO3)-n2nc(C(=O)NCCF)nc21` [Example 25, (7S)-9-(2,6-difluorophenyl)-N-(2-fluoroethyl)-7-methyl-13,16-dioxa-18-thia-2,3,5,8-tetrazatetracyclo[8.8.0.02,6.011,17]octadeca-1(10),3,5,8,11(17)-pentaene-4-carboxamide] the Ki [1] was 2.1 nM, the “Efficacy (GABA) %” value [2] was 99% and the “Fold increase h-GABA-A α2β2γ1 oocyte @ 30-fold Ki” value [2] was 1.99.

`Cc1nnc2n1-c1sc3c(c1C(c1c(F)cccc1F)=N[C@H]2C)CCC[C@H](F)C3` (single isomer, unassigned) [Example 17] was tested, and the Ki [1] was 1.77 nM, the “Efficacy (GABA) %” value [2] was 135% and the “Fold increase h-GABA-A α2β2γ1 oocyte @ 30-fold Ki” value [2] was 2.35.

`Cc1nnc2n1-c1sc3c(c1C(c1c(F)cccc1F)=N[C@H]2C)CC[C@H](F)CC3` (single isomer, unassigned) [Example 14] was tested, and the Ki [1] was 4.87 nM, the “Efficacy (GABA) %” value [2] was 181% and the “Fold increase h-GABA-A α2β2γ1 oocyte @ 30-fold Ki” value [2] was 2.81.

`C[C@@H]1N=C(c2c(F)cccc2F)c2c(sc3c2COCCO3)-n2c(C3CC3)nnc21` [Example 43, (7S)-3-cyclopropyl-9-(2,6-difluorophenyl)-7-methyl-13,16-dioxa-18-thia-2,4,5,8-tetrazatetracyclo[8.8.0.02,6.011,17]octadeca-1(10),3,5,8,11(17)-pentaene] was tested, and the Ki [1] was 4.45 nM, the “Efficacy (GABA) %” value [2] was 94% and the “Fold increase h-GABA-A α2β2γ1 oocyte @ 30-fold Ki” value [2] was 1.94.

In the case of `C[C@@H]1N=C(c2c(F)cccc2F)c2c(sc3c2COCCO3)-n2c(C(F)F)nnc21` [Example 48, (7S)-3-(difluoromethyl)-9-(2,6-difluorophenyl)-7-methyl-13,16-dioxa-18-thia-2,4,5,8-tetrazatetracyclo[8.8.0.02,6.011,17]octadeca-1(10),3,5,8,11(17)-pentaene], the Ki [1] is reported as 13.5 nM, the “Efficacy (GABA) %” value [2] is reported as 144% and the “Fold increase h-GABA-A α2β2γ1 oocyte @ 30-fold Ki” value [2] is reported as 2.44.

With `Cc1nnc2n1-c1sc3c(c1C(c1c(F)cccc1F)=N[C@H]2C)CCCC(O)C3` (mixture of isomers) [Example 13, (7S,15RS)-9-(2,6-difluorophenyl)-3,7-dimethyl-18-thia-2,4,5,8-tetrazatetracyclo[8.8.0.02,6.011,17]octadeca-1(10),3,5,8,11(17)-pentaen-15-ol] the Ki [1] was 5.67 nM, the “Efficacy (GABA) %” value [2] was 80% and the “Fold increase h-GABA-A α2β2γ1 oocyte @ 30-fold Ki” value [2] was 1.80.

With `[2H]C1([2H])OCc2c(sc3c2C(c2c(F)cccc2F)=N[C@@H](C)c2nc(C(=O)N4CCC4)nn2-3)OC1([2H])[2H]` [Example 23, azetidin-1-yl-[(7S)-14,14,15,15-tetradeuterio-9-(2,6-difluorophenyl)-7-methyl-13,16-dioxa-18-thia-2,3,5,8-tetrazatetracyclo[8.8.0.02,6.011,17]octadeca-1(10),3,5,8,11(17)-pentaen-4-yl]methanone] the Ki [1] was 2.49 nM, the “Efficacy (GABA) %” value [2] was 63% and the “Fold increase h-GABA-A α2β2γ1 oocyte @ 30-fold Ki” value [2] was 1.63.
